Experimental findings from ChEMBL document CHEMBL1201862, “PubChem BioAssay data set” (2004) are described below.

Among the test systems are A549; HCT-15; Hs-578T; K562; KM12; LOX IMVI; M14; MDA-MB-435; NCI-H226; OVCAR-4; OVCAR-5; SK-MEL-2; SN12C; SNB-19; SNB-75; SR; SW-620; U-251; UACC-257.
What all share (test): NCI tumour cell line growth inhibition, 48 h

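Where inhibition never reached the appropriate level, the endpoint shown equals the highest concentration tested. Otherwise, values were interpolated linearly from a five-concentration, 48-hour dose response in 96-well plates. The concentration for 50% growth inhibition is given as GI50.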 The source made the active and inactive calls. No stated cut-off is given here; in the data, active = GI50 up to about 1.1 µM and inactive = higher.

For `C=C(C(=O)OC1C(CO)OC(OCC2CC[C@@H]3C[C@]4(OC(=O)C3=C)C(C)=CC(=O)C24)C(O)C1O)[C@@H]1CCC(CO)C2C(=O)C=C(C)[C@@]2(O)C1` (stereo partly drawn), the GI50 with A549 is 4.37 µM (inactive); in the experiment on HCT-15, 0.631 µM; in the experiment with Hs-578T, 4.09 µM (inactive); in the experiment on K562 it was 0.783 µM (active); with KM12, 2.55 µM (inactive); with LOX IMVI it was 2.18 µM (inactive). Besides, the GI50 in the experiment on M14 is 2.08 µM (inactive); with MDA-MB-435 it was 2.09 µM (inactive); in the experiment on NCI-H226 it was 6.58 µM (inactive); in the experiment with OVCAR-4 it was 4.01 µM (inactive); in the experiment with OVCAR-5 it was 2.7 µM (inactive); with SK-MEL-2 it was 2.47 µM (inactive). The GI50 was 1.32 µM (inactive) in the experiment on SN12C; 16.4 µM (inactive) in the experiment on SNB-19; 13.8 µM (inactive) with SNB-75; 0.646 µM (active) in the experiment on SR; 0.603 µM (active) with SW-620; 4.68 µM (inactive) in the experiment with U-251. For the same compound, the GI50 in the experiment with UACC-257 is 1.84 µM (inactive).
Consider `CC1CC(=O)N(N(C)C)C(C#N)(C#N)C1(C#N)C#N` (stereo not drawn), for which the GI50 in the experiment with A549 was 24.8 µM (inactive); in the experiment on HCT-15, 16.3 µM; in the experiment with Hs-578T, 23.2 µM (inactive); in the experiment with K562 it was 2.81 µM (inactive); with KM12 it was > 44.1 µM (inactive); in the experiment with LOX IMVI, 17 µM (inactive). For the same compound, the GI50 was 15.8 µM (inactive) with M14; 17 µM (inactive) in the experiment on MDA-MB-435; 28.1 µM (inactive) in the experiment with NCI-H226; 18.3 µM (inactive) in the experiment on OVCAR-4; 23.9 µM (inactive) in the experiment with OVCAR-5; 25.5 µM (inactive) with SK-MEL-2. For the same compound, the GI50 in the experiment on SN12C is 21 µM (inactive); with SNB-19, 28.7 µM (inactive); with SNB-75 it was > 35.6 µM (inactive); in the experiment with SR, 4.99 µM (inactive); with SW-620, 5.12 µM (inactive); in the experiment on U-251 it was 20.9 µM (inactive). The GI50 with UACC-257 was 15.1 µM (inactive).
In the case of `NC(=O)CCC(NC(=O)c1cccc2c(=O)c3ccccc3[nH]c12)C(=O)O` (stereo not drawn), the GI50 was > 100 µM (inactive) in the experiment with A549; above 100 µM in the experiment with HCT-15; > 100 µM (inactive) in the experiment on Hs-578T; > 100 µM (inactive) in the experiment on K562; > 100 µM (inactive) in the experiment on KM12; > 100 µM (inactive) in the experiment on LOX IMVI. Besides, the GI50 in the experiment on M14, in the experiment with MDA-MB-435, with NCI-H226, with OVCAR-4, with OVCAR-5 and in the experiment on SK-MEL-2 was > 100 µM (inactive) each time. Besides, the GI50 with SN12C, with SNB-19, in the experiment on SNB-75, in the experiment on SR, with SW-620 and in the experiment on U-251 was > 100 µM (inactive) throughout.
As for `O/N=C(\CC(O)(C(F)(F)F)C(F)(F)F)c1cccc(Cl)c1`, the GI50 is 35.9 µM (inactive) with A549; 32.4 µM with HCT-15; 21.5 µM (inactive) in the experiment on Hs-578T; 30.2 µM (inactive) in the experiment with K562; 34.8 µM (inactive) in the experiment on KM12; 23 µM (inactive) with LOX IMVI. Besides, the GI50 in the experiment on M14 is 22.8 µM (inactive); with MDA-MB-435 it was 25.8 µM (inactive); with NCI-H226, 20.8 µM (inactive); in the experiment with OVCAR-4 it was 34.5 µM (inactive); in the experiment on OVCAR-5 it was 47.9 µM (inactive); with SK-MEL-2, 22.7 µM (inactive). The GI50 is 18.2 µM (inactive) in the experiment with SNB-75; 45.3 µM (inactive) in the experiment on SR; 37.8 µM (inactive) in the experiment with SW-620; 20.2 µM (inactive) in the experiment with U-251; 35.6 µM (inactive) in the experiment on UACC-257.
